According to PubChem BioAssay (NCI):
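How tested: cells in 96-well plates exposed to compound for 48 hours at five concentrations. TGI marks complete inhibition of growth.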

Assays:
Assay in all cases: NCI tumour cell line growth inhibition, 48 h
A549 NSCLC = test system: A549 NSCLC
DLD-1 colon = test system: DLD-1 colon
DMS 114 small cell lung = test system: DMS 114 small cell lung
DMS 273 small cell lung = test system: DMS 273 small cell lung
KM20L2 colon = test system: KM20L2 colon
NCI-H460 lung = test system: NCI-H460 lung
OVCAR-3 ovarian = test system: OVCAR-3 ovarian
OVCAR-5 ovarian = test system: OVCAR-5 ovarian
P388/ADR leukemia = test system: P388/ADR leukemia
SF-268 CNS = test system: SF-268 CNS
SNB-75 CNS = test system: SNB-75 CNS
SNB-78 CNS = test system: SNB-78 CNS
UACC-62 melanoma = test system: UACC-62 melanoma
XF 498 CNS = test system: XF 498 CNS
ACHN renal = test system: ACHN renal
M14 melanoma = test system: M14 melanoma

SMILES | TGI (A549 NSCLC) [µM] | TGI (DLD-1 colon) [µM] | TGI (DMS 114 small cell lung) [µM] | TGI (DMS 273 small cell lung) [µM] | TGI (KM20L2 colon) [µM] | TGI (NCI-H460 lung) [µM] | TGI (OVCAR-3 ovarian) [µM] | TGI (OVCAR-5 ovarian) [µM] | TGI (P388/ADR leukemia) [µM] | TGI (SF-268 CNS) [µM] | TGI (SNB-75 CNS) [µM] | TGI (SNB-78 CNS) [µM] | TGI (UACC-62 melanoma) [µM] | TGI (XF 498 CNS) [µM] | TGI (ACHN renal) [µM] | TGI (M14 melanoma) [µM]
Cc1c2c(cc3c1[nH]c1ccccc13)C=NCC2 | 61.6 | 33.1 | 12.9 | 45.8 | 34.5 | 27.7 | 11.8 | 61 | 53.1 | 49.6 | 39.5 | 63.8 | 21.5 | 12.6 | – | –
C=C1C(=O)OC2(C)C3CCC(C3)C12 (stereo not drawn) | > 100 | > 100 | > 100 | > 100 | > 100 | > 100 | > 100 | > 100 | – | > 100 | > 100 | > 100 | > 100 | 97.9 | > 100 | 95.7
COc1ccccc1-c1cc(=O)c2ccccc2[nH]1 | > 100 | > 100 | – | > 100 | > 100 | > 100 | > 100 | – | – | > 100 | > 100 | > 100 | > 100 | – | > 100 | > 100
O=C(NCCCCCCNC(=O)n1cc(F)c(=O)[nH]c1=O)NCCCOCCOCCCNC(=O)C(O)C(O)C(O)C(O)CO (stereo not drawn) | > 2.5 | > 2.5 | > 2.5 | > 2.5 | > 2.5 | > 2.5 | > 2.5 | > 2.5 | > 2.5 | > 2.5 | > 2.5 | > 2.5 | > 2.5 | > 2.5 | – | –
CCN(CC)CCCOC(=O)/C=C/c1c(C)[nH]c(=O)[nH]c1=O | > 625 | > 625 | > 625 | > 625 | > 625 | > 625 | > 625 | > 625 | > 394 | > 625 | > 625 | > 625 | > 625 | > 625 | – | –
CCCCCCCCCCCCCCCCSCC(COC)COP(=O)([O-])OCC[N+](C)(C)C (stereo not drawn) | 20.5 | 11.2 | 20.8 | 3.9 | – | 6.2 | 17 | 26 | 15.2 | 20.5 | 14.3 | 26.1 | 19.6 | 19.8 | – | –
O=C(CC/C=C(/CS(=O)(=O)c1ccccc1)S(=O)(=O)c1ccccc1)c1ccccc1 | > 100 | > 100 | 83.4 | > 100 | > 100 | > 100 | > 100 | > 100 | – | – | > 100 | – | > 100 | > 100 | > 100 | > 100
C=C1C[C@@H](O)C[C@@]2(C)C[C@@H]3OC(=O)C(=C)[C@@H]3C[C@H]12 | 81 | > 36.6 | 23.5 | 20.5 | 25.4 | > 58.6 | 35.2 | 28 | 31.8 | 14.4 | > 35.5 | 37.3 | 21 | 4.71 | – | –
CC(=O)OCC1OC(n2cc(F)c(=O)[nH]c2=O)C(N)C(OC(C)=O)C1OC(C)=O (stereo not drawn) | > 100 | > 100 | > 100 | > 100 | > 100 | > 100 | > 100 | > 100 | > 100 | > 100 | > 100 | > 100 | > 100 | > 100 | – | –
